Values joined by “and” are separate entries in the source; they are usually repeats but may differ in a detail not shown here. Equal entries are not always repeated.
How the values were obtained:
[1] = Clinical Pharmacology Study Fed/Fasted cohort: food effect on single-dose PK; assay type: in vivo, human; details: 200 mg single dose
Description: Study Design: The Clinical Pharmacology Study consists of 3 independent cohorts: 1) an open-label, randomized, 2-period, crossover Fed/Fasted cohort to determine food effects; 2) an open-label, 2-period, fixed sequence PPI cohort to evaluate interactions with esomeprazole; and 3) an open-label, randomized, 2 period, crossover rBA cohort to evaluate 2 tablet formulations.
Compound A should be taken with food.

reticulocytes = assay: Rat micronucleus test; assay type: in vivo; details: 400, 800, 1600 mg/kg/day, two days
GR = GR (Homo sapiens, UniProt P04150); assay: Secondary pharmacodynamics binding, GR; details: in vitro
[2] = Turnover in liver microsomes and hepatocytes; assay type: in vitro ADME; details: across species
Description: No human unique metabolites were observed. Although it is not thought to be formed via enzymatic conversion, the epimer Compound B was formed to a limited extent in animals.

P-gp = P-gp (Homo sapiens, UniProt P08183); assay: Efflux transporter substrate assessment (inside-out vesicular assay), P-gp; assay type: in vitro ADME
GSPT1 = GSPT1 (Homo sapiens, UniProt P15170); assay: Cereblon neomorphic substrate degradation, GSPT1; assay type: cell-based; details: in vitro
Description: (§1) These drugs bind to cereblon and promote the degradation of novel (neomorphic) substrates.

[3] = Interconversion (epimerization) Compound A/Compound B in animals; assay type: in vivo, mouse, rat, dog, and monkey; details: monkey
[4] = tested on: BALB/c 3T3 mouse fibroblasts; assay: In vitro 3T3 phototoxicity; assay type: cell-based
[5] = Clinical Pharmacology Study: adverse events in healthy volunteers
Description: The severity of adverse events was graded according to the National Cancer Institute Common Terminology Criteria for Adverse Events (NCI CTCAE) version 5.0.

[6] = FIH Study Part B dose expansion (VERITAC): adverse events
Description: Study Design: In the FIH Study: Part A is a Phase I monotherapy dose escalation, and Part B is a Phase 2 monotherapy expansion at 2 RP2D doses (200 mg QD, 500 mg QD).
TEAEs and TRAEs from the clinical study database were coded to system organ class and preferred term using MedDRA version 22.0 and SAEs from the centralized safety database were coded using MedDRA version 25.0. The severity of adverse events was graded according to the NCI CTCAE version 5.0.

Aiolos = Aiolos (Homo sapiens, UniProt Q9UKT9); assay: Cereblon neomorphic substrate degradation, Aiolos; assay type: cell-based; details: in vitro
Description: as §1

[7] = 200 mg QD n=35, Nov. 1, 2022, grade 1/2

Sequence of P-gp (P08183 whole entry): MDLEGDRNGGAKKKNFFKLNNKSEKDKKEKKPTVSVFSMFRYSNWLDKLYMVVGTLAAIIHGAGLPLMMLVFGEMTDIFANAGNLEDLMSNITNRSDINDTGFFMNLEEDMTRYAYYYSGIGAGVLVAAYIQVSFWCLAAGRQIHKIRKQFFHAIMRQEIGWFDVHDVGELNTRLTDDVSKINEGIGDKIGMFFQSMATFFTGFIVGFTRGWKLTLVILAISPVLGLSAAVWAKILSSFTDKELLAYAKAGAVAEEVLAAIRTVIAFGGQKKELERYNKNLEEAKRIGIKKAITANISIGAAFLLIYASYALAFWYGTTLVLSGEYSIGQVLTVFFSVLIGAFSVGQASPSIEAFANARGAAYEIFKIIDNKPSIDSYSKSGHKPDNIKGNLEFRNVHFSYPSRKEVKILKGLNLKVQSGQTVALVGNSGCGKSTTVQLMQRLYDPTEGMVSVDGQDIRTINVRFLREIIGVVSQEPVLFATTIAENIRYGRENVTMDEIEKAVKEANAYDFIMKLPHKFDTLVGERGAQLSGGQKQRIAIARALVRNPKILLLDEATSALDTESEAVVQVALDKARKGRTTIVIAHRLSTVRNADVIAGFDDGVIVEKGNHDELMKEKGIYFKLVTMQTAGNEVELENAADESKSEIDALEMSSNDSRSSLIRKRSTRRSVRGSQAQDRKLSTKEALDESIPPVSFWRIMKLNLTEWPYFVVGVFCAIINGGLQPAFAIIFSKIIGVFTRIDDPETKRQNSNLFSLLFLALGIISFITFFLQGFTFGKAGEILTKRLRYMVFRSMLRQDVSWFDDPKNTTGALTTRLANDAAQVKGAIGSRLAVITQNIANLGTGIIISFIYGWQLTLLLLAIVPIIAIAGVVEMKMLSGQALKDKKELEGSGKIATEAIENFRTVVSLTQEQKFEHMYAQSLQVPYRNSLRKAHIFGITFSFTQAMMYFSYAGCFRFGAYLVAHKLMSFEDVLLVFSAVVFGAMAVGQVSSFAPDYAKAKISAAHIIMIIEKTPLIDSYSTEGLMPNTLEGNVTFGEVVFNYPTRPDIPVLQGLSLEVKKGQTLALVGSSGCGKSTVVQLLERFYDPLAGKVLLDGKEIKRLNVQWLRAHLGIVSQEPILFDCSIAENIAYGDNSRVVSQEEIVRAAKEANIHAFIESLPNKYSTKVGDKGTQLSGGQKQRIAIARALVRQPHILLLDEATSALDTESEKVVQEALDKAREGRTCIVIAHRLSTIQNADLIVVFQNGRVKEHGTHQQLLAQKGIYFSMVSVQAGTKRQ
Sequence of Aiolos (Q96SW2 whole entry partner): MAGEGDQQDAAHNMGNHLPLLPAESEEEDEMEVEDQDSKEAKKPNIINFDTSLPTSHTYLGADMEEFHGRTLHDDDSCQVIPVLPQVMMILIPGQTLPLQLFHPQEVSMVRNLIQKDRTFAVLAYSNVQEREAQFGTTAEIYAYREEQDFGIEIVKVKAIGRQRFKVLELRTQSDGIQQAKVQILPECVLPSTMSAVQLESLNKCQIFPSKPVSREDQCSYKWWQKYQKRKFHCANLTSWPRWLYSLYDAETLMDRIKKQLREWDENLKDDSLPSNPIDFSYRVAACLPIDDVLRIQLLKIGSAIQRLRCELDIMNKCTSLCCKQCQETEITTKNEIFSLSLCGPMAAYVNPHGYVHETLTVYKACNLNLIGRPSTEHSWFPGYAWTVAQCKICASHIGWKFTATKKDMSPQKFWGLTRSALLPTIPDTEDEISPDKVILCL
Sequence of Aiolos (Q16531 whole entry partner): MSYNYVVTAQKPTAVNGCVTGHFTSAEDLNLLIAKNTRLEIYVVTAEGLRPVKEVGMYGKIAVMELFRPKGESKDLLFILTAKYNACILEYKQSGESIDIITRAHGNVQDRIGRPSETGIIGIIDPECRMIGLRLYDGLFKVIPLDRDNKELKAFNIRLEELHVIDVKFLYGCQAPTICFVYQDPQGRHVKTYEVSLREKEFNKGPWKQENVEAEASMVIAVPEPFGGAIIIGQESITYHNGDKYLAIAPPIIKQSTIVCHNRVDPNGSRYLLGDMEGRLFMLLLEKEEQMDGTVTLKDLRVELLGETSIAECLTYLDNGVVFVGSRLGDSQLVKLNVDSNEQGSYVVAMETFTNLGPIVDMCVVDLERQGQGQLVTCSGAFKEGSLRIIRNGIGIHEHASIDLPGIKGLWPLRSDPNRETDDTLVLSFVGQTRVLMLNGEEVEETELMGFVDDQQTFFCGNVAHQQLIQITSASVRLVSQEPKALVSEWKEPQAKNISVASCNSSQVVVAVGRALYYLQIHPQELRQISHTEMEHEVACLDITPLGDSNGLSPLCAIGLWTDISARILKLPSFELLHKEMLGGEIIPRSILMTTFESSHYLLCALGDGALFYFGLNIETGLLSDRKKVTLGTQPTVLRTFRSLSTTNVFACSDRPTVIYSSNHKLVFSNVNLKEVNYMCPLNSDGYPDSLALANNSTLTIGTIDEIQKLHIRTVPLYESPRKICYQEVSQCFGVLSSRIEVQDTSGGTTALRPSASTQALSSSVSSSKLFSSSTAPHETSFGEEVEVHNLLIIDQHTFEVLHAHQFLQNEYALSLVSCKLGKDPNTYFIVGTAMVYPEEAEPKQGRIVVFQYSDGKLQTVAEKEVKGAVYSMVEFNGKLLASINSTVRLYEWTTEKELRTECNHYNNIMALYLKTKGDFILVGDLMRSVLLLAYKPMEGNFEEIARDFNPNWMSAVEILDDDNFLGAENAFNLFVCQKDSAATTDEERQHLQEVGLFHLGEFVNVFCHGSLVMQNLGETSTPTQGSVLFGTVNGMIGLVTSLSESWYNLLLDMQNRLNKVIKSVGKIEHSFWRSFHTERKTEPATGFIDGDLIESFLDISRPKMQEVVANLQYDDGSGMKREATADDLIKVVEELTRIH
Sequence of Aiolos (Q9UKT9 whole entry): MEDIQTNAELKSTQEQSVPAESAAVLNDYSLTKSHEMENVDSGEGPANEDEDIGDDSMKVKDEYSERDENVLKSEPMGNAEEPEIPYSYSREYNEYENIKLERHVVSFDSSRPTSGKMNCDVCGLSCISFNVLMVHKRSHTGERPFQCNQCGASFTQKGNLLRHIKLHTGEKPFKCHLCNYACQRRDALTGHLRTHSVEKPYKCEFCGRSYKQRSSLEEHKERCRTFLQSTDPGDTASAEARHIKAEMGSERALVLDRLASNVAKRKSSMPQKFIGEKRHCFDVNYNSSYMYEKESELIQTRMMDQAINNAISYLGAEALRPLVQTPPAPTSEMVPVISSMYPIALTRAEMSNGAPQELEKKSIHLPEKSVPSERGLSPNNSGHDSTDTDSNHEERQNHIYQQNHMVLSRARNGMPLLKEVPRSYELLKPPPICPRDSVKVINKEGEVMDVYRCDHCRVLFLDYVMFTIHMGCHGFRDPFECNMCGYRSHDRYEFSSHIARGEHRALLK
Sequence of GSPT1 (Q96SW2 whole entry partner, species assumed): as the sequence (Q96SW2 whole entry partner) above
Sequence of GSPT1 (Q16531 whole entry partner, species assumed): as the sequence (Q16531 whole entry partner) above
Sequence of GSPT1 (P15170 whole entry, species assumed): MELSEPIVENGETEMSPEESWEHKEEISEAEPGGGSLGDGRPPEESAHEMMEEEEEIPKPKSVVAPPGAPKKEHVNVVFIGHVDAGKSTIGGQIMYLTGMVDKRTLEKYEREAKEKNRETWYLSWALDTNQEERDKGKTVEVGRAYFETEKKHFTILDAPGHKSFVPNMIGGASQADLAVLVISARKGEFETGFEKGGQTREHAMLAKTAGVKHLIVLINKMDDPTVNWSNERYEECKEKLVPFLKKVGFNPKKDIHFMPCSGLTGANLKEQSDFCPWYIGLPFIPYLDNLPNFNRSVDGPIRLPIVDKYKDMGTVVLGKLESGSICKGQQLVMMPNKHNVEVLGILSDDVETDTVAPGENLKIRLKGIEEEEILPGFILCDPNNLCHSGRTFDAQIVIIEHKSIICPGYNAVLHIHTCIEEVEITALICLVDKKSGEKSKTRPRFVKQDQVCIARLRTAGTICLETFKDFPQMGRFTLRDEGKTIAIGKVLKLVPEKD
Sequence of GR (P04150 whole entry): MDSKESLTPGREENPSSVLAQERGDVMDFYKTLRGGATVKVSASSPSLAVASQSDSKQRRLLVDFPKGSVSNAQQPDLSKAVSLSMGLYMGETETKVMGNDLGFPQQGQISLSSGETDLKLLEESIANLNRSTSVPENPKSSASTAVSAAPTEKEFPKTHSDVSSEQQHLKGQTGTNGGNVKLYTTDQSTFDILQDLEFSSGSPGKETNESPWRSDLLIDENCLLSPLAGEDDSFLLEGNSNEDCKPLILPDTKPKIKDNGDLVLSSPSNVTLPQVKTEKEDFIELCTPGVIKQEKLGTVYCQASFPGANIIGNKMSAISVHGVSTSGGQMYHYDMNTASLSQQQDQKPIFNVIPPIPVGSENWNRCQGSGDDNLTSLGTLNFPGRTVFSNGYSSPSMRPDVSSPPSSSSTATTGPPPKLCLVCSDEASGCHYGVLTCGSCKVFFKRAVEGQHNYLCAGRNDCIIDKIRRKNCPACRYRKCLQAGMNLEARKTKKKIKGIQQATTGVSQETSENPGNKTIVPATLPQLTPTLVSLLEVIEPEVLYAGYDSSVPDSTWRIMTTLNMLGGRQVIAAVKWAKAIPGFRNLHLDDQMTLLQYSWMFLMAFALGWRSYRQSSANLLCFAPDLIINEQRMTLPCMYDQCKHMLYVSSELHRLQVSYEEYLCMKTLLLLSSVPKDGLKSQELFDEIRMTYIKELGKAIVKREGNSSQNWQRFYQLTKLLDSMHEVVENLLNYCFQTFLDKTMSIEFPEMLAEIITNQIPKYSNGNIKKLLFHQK

## O=C1CC[C@H](N2Cc3cc(N4CCN(CC5CCN(c6ccc([C@@H]7c8ccc(O)cc8CC[C@@H]7c7ccccc7)cc6)CC5)CC4)ccc3C2=O)C(=O)N1 [Compound A, (S)-3-(5-(4-((1-(4-((1R,2S)-6-hydroxy-2-phenyl-1,2,3,4-tetrahydronaphthalen-1-yl)phenyl)piperidin-4-yl)methyl)piperazin-1-yl)-1-oxoisoindolin-2-yl)piperidine-2,6-dione]
[1]
  increase of AUCinf by high-fat meal: 125%
  increase of AUCinf by high-fat meal vs fasted: 2.2 fold and 2 fold
  increase of Cmax by high-fat meal: 184%
  increase of Cmax by high-fat meal vs fasted: 2.8 fold and 3 fold
reticulocytes
  chromosomal damage in reticulocytes: did not induce chromosomal damage
GR
  binding: bound
[2]
  turnover in liver microsomes and hepatocytes: relatively low turnover
P-gp
  substrate of P-gp: unlikely to be a substrate
GSPT1
  degradation of GSPT1: did not degrade
[3]
  extent of epimerization: negligible
[4]
  phototoxicity: not phototoxic
[5]; 200 mg, healthy participants
  TRAEs of Grade 2 or higher: no TRAEs of Grade 2 or higher were reported
  tolerability: well-tolerated
[5]; Fast/Fed cohort
  Grade 1 TEAEs: 21.4%
  Grade 2 TEAEs: 14.3%
  Grade 3 or higher TEAEs: No participants reported Grade 3 or higher TEAEs
[5]; Fast/Fed cohort n=14
  TEAE ligament sprain: 14.3%
  TRAE pollakiuria: 7.1%
[5]; PPI cohort
  Grade 1 TEAEs: 47.1%
  Grade 2 TEAEs: 5.9%
  Grade 3 or higher TEAEs: No participants reported Grade 3 or higher TEAEs
  TRAEs nausea, headache, pruritus, each: 5.9%
[5]; PPI cohort n=17
  TEAE Headache: 29.4%
  participants with at least 1 TRAE: 11.8%
[5]; PPI cohort, due to COVID
  participants with TEAE leading to discontinuation: One
[5]; all cohorts
  SAEs, SARs, deaths: No SAEs, SARs or deaths were reported
  participants with at least 1 TRAE: 3 of 47 participants
[5]; all cohorts, 200 mg
  participants with TEAEs: 15 of 47 participants
[5]; rBA cohort n=16
  TRAEs: No participants reported a TRAE
  participants with a TEAE (dizziness, Grade 1): 6.3%
[6]; [7]
  TRAE Arthralgia: 11%
  TRAE Fatigue: 40%
  TRAE Nausea: 14%
  TRAE hot flush: 17%
  TRAE increased aspartate aminotransferase: 11%
[6]; 6 Jun 2023
  Grade 5 TRAEs: no Grade 5 TRAEs
[6]; 6 Jun 2023, N=71
  Grade 1 TEAEs: 22.5%
  Grade 1 TRAEs: 29.6%
  Grade 2 TEAEs: 33.8%
  Grade 2 TRAEs: 38.0%
  Grade 3 TEAEs: 28.2%
  Grade 3 TRAE electrocardiogram QT prolonged: 1.4%
  Grade 4 TEAEs: 2.8%
  Grade 5 TEAE: 1.4%
  TEAE Arthralgia: 21.1%
  TEAE Aspartate aminotransferase increased: 12.7%
  TEAE Back pain: 11.3%
  TEAE Constipation: 19.7%
  TEAE Decreased appetite: 15.5%
  TEAE Headache: 11.3%
  TEAE Nausea: 26.8%
  TEAE anemia: 14.1%
  TEAE hot flush: 14.1%
  TRAE Arthralgia: 14.1%
  TRAE Fatigue: 36.6%
  TRAE Nausea: 21.1%
  TRAE hot flush: 12.7%
  patients with TRAEs of Grade ≥3: 7.0%
  patients with at least 1 TEAE: 88.7%
  patients with at least 1 TRAE: 76.1%
[6]; 6 Jun 2023, N=71, 10
  SAEs: 14.1%
[6]; 14 of 71 participants
  deaths: 19.7%
[6]; Patient 1, onset day 263, Not related
  SAE Seizure, Grade: 3
[6]; Patient 2, onset day 85, Not related
  SAE Intestinal obstruction, Grade: 3
[6]; Patient 3, onset day 165, Not related
  SAE Muscular weakness, Grade: 3
[6]; Patient 3, onset day 196
  SAE Back pain, Grade: 2
[6]; Patient 4, onset day 55, Not related
  SAE Hepatic hemorrhage, Grade: 4
[6]; Patient 5, onset day 53, Not related
  SAE Hypercalcemia, Grade: 4
[6]; Patient 6, Not related
  SAE Anemia, Grade: 3
  SAE Cholangitis, Grade: 3
[6]; Patient 6, Possibly related, SUSAR
  SAE Thrombocytopenia, Grade: 3
[6]; Patient 6, onset day 15, Possibly related, SUSAR
  SAE Hyperbilirubinemia, Grade: 4
[6]; Patient 6, onset day 19, Unlikely related
  SAE Acute respiratory failure, Grade: 5
[6]; Patient 7, onset day 36, Not related
  SAE Upper gastrointestinal hemorrhage, Grade: 3
[6]; Patient 8, onset day 22, Not related
  SAE Spinal cord compression, Grade: 3
[6]; Patient 9, onset day 27, Not related
  SAE Pyrexia, Grade: 3
[6]; cut-off 6 Jun 2022
  Grade 5 TRAEs: no Grade 5 TRAEs
  patients reporting SAEs: 9 of 71 patients
  total SAEs: 14 SAEs
[6]; cut-off 6 Jun 2022, N=71
  Grade 1 TEAEs: 29.6%
  Grade 1 TRAEs: 33.8%
  Grade 2 TEAEs: 35.2%
  Grade 2 TRAEs: 31.0%
  Grade 3 TEAE of anemia: 2 patients
  Grade 3 TEAEs: 18.3%
  Grade 4 TEAEs: 2.8%
  Grade 4 TRAE of hyperbilirubinemia: 1
  Grade 5 TEAE: 1.4%
  TEAEs of Grade ≥3: 22.5%
  patients with TRAEs of Grade ≥3: 7.0%
  patients with at least 1 TEAE: 87.3%
  patients with at least 1 TRAE: 71.8%
[6]; four of 71 patients
  TEAE leading to discontinuation: 5.6%
Aiolos
  degradation of Aiolos: did not degrade

Reference: patent publication US20260069588A1, “VEPDEGESTRANT FOR USE IN TREATING CANCER” (Arvinas Operation, Inc., priority 2022, published 2026)
